# Test results: US10968462B2, “Plants having increased tolerance to herbicides” (BASF AGRO B.V., priority 2013, dated 2021)
# Tested on: transgenic T2 soybean plants
# Test: Soybean greenhouse spray test, T2 plants at V2-V3 stage, injury 0-9 point scale 1 or 2 weeks after treatment (Tables 7C-7E)
# Type: in vivo, Glycine max
# Conditions: 2 week after treatment
# Description: Soybean cv Jake was transformed as previously described by Siminszky et al., Phytochem Rev. 5:445-458 (2006). After regeneration, transformants were transplanted to soil in small pots, placed in growth chambers (16 hr day/8 hr night; 25° C. day/23° C. night; 65% relative humidity; 130-150 microE m-2 s-1) and subsequently tested for the presence of the T-DNA via Taqman analysis. After a few weeks, healthy, transgenic positive, single copy events were transplanted to larger pots and allowed to grow in the growth chamber. An optimal shoot for cutting was about 3-4 inches tall, with at least two nodes present. Each cutting was taken from the original transformant (mother plant) and dipped into rooting hormone powder (indole-3-butyric acid, IBA). The cutting was then placed in oasis wedges inside a bio-dome. The mother plant was taken to maturity in the greenhouse and harvested for seed. Wild type cuttings were also taken simultaneously to serve as negative controls. The cuttings were kept in the bio-dome for 5-7 days and then transplanted to 3 inch pots and then acclimated in the growth chamber for two more days. […] Other herbicides, such as AHAS (ALS—Acetolactate Synthase) inhibiting herbicides were also tested in a similar fashion for confirming cross resistance to other modes of action: Tritosulfuron, Florasulam, Metsulfuron, Rimsulfuron. Herbicide injury evaluations were taken at 2, 7, 14 and 21 days after treatment.
# • 0 No Injury • 1 Minimal injury, only a few patches of leaf injury or chlorosis. • 2 Minimal injury with slightly stronger chlorosis. Overall growth points remain undamaged. • 3 Slightly stronger injury on secondary leaf tissue, but primary leaf and growth points are still undamaged. • 4 Overall plant morphology is slightly different, some chlorosis and necrosis in secondary growth points and leaf tissue. Stems are intact. Regrowth is highly probable within 1 week. • 5 Overall plant morphology is clearly different, some chlorosis and necrosis on a few leaves and growth points, but primary growth point is intact. Stem tissue is still green. Regrowth is highly probably within 1 week. • 6 Strong injury can be seen on the new leaflet growth. Plant has a high probability to survive only through regrowth at different growth points. Most of the leaves are chlorotic/necrotic but stem tissue is still green. May have regrowth but with noticeable injured appearance. • 7 Most of the active growth points are necrotic. There may be a single growth point that could survive and may be partially chlorotic or green and partially necrotic. Two leaves may still be chlorotic with some green; the rest of the plant including stem is necrotic. • 8 Plant will likely die, and all growth points are necrotic. One leaf may still be chlorotic with some green. The remainder of the plant is necrotic. • 9 Plant is dead. • * Not tested
smiles,measurement,setting,value
COc1nc(NC(=O)NS(=O)(=O)c2ccccc2C(F)(F)F)nc(C(F)(F)F)n1 [Tritosulfuron],injury on a 0-9 point scale,"Bradi_1g07930.1 (Event 1), 4.375 g ai/ha",1.5
same,injury on a 0-9 point scale,"Bradi_1g07930.1 (Event 1), 8.75 g ai/ha",0.5
same,injury on a 0-9 point scale,"Bradi_1g07930.1 (Event 1), 17.5 g ai/ha",1.7
same,injury on a 0-9 point scale,"Bradi_1g07930.1 (Event 1), 35 g ai/ha",2.3
same,injury on a 0-9 point scale,"Bradi_1g07930.1 (Event 1), 70 g ai/ha",1.5
same,injury on a 0-9 point scale,"Bradi_1g07930.1 (Event 1), 140 g ai/ha",0.3
same,injury on a 0-9 point scale,"R128A_F420V (Event 1), 4.375 g ai/ha",5.3
same,injury on a 0-9 point scale,"R128A_F420V (Event 1), 8.75 g ai/ha",6.0
same,injury on a 0-9 point scale,"R128A_F420V (Event 1), 17.5 g ai/ha",7.0
same,injury on a 0-9 point scale,"R128A_F420V (Event 1), 35 g ai/ha",7.0
same,injury on a 0-9 point scale,"R128A_F420V (Event 1), 70 g ai/ha",7.0
same,injury on a 0-9 point scale,"R128A_F420V (Event 1), 140 g ai/ha",6.5
same,injury on a 0-9 point scale,"R128A_F420V (Event 2), 4.375 g ai/ha",6.0
same,injury on a 0-9 point scale,"R128A_F420V (Event 2), 8.75 g ai/ha",6.5
same,injury on a 0-9 point scale,"R128A_F420V (Event 2), 17.5 g ai/ha",7.0
same,injury on a 0-9 point scale,"R128A_F420V (Event 2), 35 g ai/ha",7.0
same,injury on a 0-9 point scale,"R128A_F420V (Event 2), 70 g ai/ha",7.0
same,injury on a 0-9 point scale,"R128A_F420V (Event 2), 140 g ai/ha",8.0
same,injury on a 0-9 point scale,"R128A_F420V + Bradi_1g07930.1 (Event 1), 4.375 g ai/ha",0.3
same,injury on a 0-9 point scale,"R128A_F420V + Bradi_1g07930.1 (Event 1), 8.75 g ai/ha",0.3
same,injury on a 0-9 point scale,"R128A_F420V + Bradi_1g07930.1 (Event 1), 17.5 g ai/ha",1.5
same,injury on a 0-9 point scale,"R128A_F420V + Bradi_1g07930.1 (Event 1), 35 g ai/ha",2.0
same,injury on a 0-9 point scale,"R128A_F420V + Bradi_1g07930.1 (Event 1), 70 g ai/ha",2.7
same,injury on a 0-9 point scale,"R128A_F420V + Bradi_1g07930.1 (Event 1), 140 g ai/ha",1.3
same,injury on a 0-9 point scale,"R128A_F420V + Bradi_1g07930.1 (Event 2), 4.375 g ai/ha",1.0
same,injury on a 0-9 point scale,"R128A_F420V + Bradi_1g07930.1 (Event 2), 8.75 g ai/ha",2.3
same,injury on a 0-9 point scale,"R128A_F420V + Bradi_1g07930.1 (Event 2), 17.5 g ai/ha",1.5
same,injury on a 0-9 point scale,"R128A_F420V + Bradi_1g07930.1 (Event 2), 35 g ai/ha",1.0
same,injury on a 0-9 point scale,"R128A_F420V + Bradi_1g07930.1 (Event 2), 70 g ai/ha",3.0
same,injury on a 0-9 point scale,"R128A_F420V + Bradi_1g07930.1 (Event 2), 140 g ai/ha",3.0
same,injury on a 0-9 point scale,"wild type, 4.375 g ai/ha",8.0
same,injury on a 0-9 point scale,"wild type, 8.75 g ai/ha",8.0
same,injury on a 0-9 point scale,"wild type, 17.5 g ai/ha",8.0
same,injury on a 0-9 point scale,"wild type, 35 g ai/ha",8.3
same,injury on a 0-9 point scale,"wild type, 70 g ai/ha",8.3
same,injury on a 0-9 point scale,"wild type, 140 g ai/ha",8.3
COc1ncc(F)c2nc(S(=O)(=O)Nc3c(F)cccc3F)nn12 [Flurasulam],injury on a 0-9 point scale,"Bradi_1g07930.1 (Event 1), 0.156 g ai/ha",0.3
same,injury on a 0-9 point scale,"Bradi_1g07930.1 (Event 1), 0.3125 g ai/ha",0.5
same,injury on a 0-9 point scale,"Bradi_1g07930.1 (Event 1), 0.625 g ai/ha",2.5
same,injury on a 0-9 point scale,"Bradi_1g07930.1 (Event 1), Flurasulam 1.25 g ai/ha",3.0
same,injury on a 0-9 point scale,"Bradi_1g07930.1 (Event 1), Flurasulam 2.5 g ai/ha",1.7
same,injury on a 0-9 point scale,"Bradi_1g07930.1 (Event 1), Flurasulam 5 g ai/ha",3.3
same,injury on a 0-9 point scale,"R128A_F420V (Event 1), 0.156 g ai/ha",0.0
same,injury on a 0-9 point scale,"R128A_F420V (Event 1), 0.3125 g ai/ha",3.3
same,injury on a 0-9 point scale,"R128A_F420V (Event 1), 0.625 g ai/ha",3.5
same,injury on a 0-9 point scale,"R128A_F420V (Event 1), Flurasulam 1.25 g ai/ha",4.5
same,injury on a 0-9 point scale,"R128A_F420V (Event 1), Flurasulam 2.5 g ai/ha",6.8
same,injury on a 0-9 point scale,"R128A_F420V (Event 1), Flurasulam 5 g ai/ha",6.5
same,injury on a 0-9 point scale,"R128A_F420V (Event 2), 0.156 g ai/ha",1.0
same,injury on a 0-9 point scale,"R128A_F420V (Event 2), 0.3125 g ai/ha",1.0
same,injury on a 0-9 point scale,"R128A_F420V (Event 2), 0.625 g ai/ha",3.5
same,injury on a 0-9 point scale,"R128A_F420V (Event 2), Flurasulam 1.25 g ai/ha",5.0
same,injury on a 0-9 point scale,"R128A_F420V (Event 2), Flurasulam 2.5 g ai/ha",6.0
same,injury on a 0-9 point scale,"R128A_F420V (Event 2), Flurasulam 5 g ai/ha",6.0
same,injury on a 0-9 point scale,"R128A_F420V + Bradi_1g07930.1 (Event 1), 0.156 g ai/ha",1.5
same,injury on a 0-9 point scale,"R128A_F420V + Bradi_1g07930.1 (Event 1), 0.3125 g ai/ha",2.3
same,injury on a 0-9 point scale,"R128A_F420V + Bradi_1g07930.1 (Event 1), 0.625 g ai/ha",3.0
same,injury on a 0-9 point scale,"R128A_F420V + Bradi_1g07930.1 (Event 1), Flurasulam 1.25 g ai/ha",3.5
same,injury on a 0-9 point scale,"R128A_F420V + Bradi_1g07930.1 (Event 1), Flurasulam 2.5 g ai/ha",3.3
same,injury on a 0-9 point scale,"R128A_F420V + Bradi_1g07930.1 (Event 1), Flurasulam 5 g ai/ha",2.5
same,injury on a 0-9 point scale,"R128A_F420V + Bradi_1g07930.1 (Event 2), 0.156 g ai/ha",3.3
same,injury on a 0-9 point scale,"R128A_F420V + Bradi_1g07930.1 (Event 2), 0.3125 g ai/ha",3.0
same,injury on a 0-9 point scale,"R128A_F420V + Bradi_1g07930.1 (Event 2), 0.625 g ai/ha",3.0
same,injury on a 0-9 point scale,"R128A_F420V + Bradi_1g07930.1 (Event 2), Flurasulam 1.25 g ai/ha",3.5
same,injury on a 0-9 point scale,"R128A_F420V + Bradi_1g07930.1 (Event 2), Flurasulam 2.5 g ai/ha",3.0
same,injury on a 0-9 point scale,"R128A_F420V + Bradi_1g07930.1 (Event 2), Flurasulam 5 g ai/ha",3.5
same,injury on a 0-9 point scale,"wild type, 0.156 g ai/ha",0.3
same,injury on a 0-9 point scale,"wild type, 0.3125 g ai/ha",3.0
same,injury on a 0-9 point scale,"wild type, 0.625 g ai/ha",4.0
same,injury on a 0-9 point scale,"wild type, Flurasulam 1.25 g ai/ha",5.5
same,injury on a 0-9 point scale,"wild type, Flurasulam 2.5 g ai/ha",6.0
same,injury on a 0-9 point scale,"wild type, Flurasulam 5 g ai/ha",7.5
